In ChEMBL document CHEMBL5500377, “Design, synthesis and molecular modeling of novel D-ring substituted steroidal 4,5-dihydropyrazole thiazolinone derivatives as anti-inflammatory agents by inhibition of COX-2/iNOS production and down-regulation of NF-κB/MAPKs in LPS-induced RAW264.7 macrophage cells” (Eur J Med Chem, 2024):

Assays:
RAW264.7 [1] = assay: Anti-inflammatory activity against mouse RAW264.7 cells assessed as inhibition of LPS-induced NO production at 5 uM measured after 24 hrs incubation by Griess assay relative to control; format: functional
[2] = Cytotoxicity against mouse RAW264.7 cells assessed as cell viability at 5 uM measured after 24 hrs incubation by MTT assay relative to control; format: toxicity, cell-based; conditions: read-out: Activity
RAW264.7 [3] = assay: Anti-inflammatory activity against mouse RAW264.7 cells assessed as inhibition of LPS-induced NO production measured after 24 hrs incubation by Griess assay; format: functional, cell-based; conditions: RAW264.7, 24 h
RAW264.7 [4] = assay: Anti-inflammatory activity against mouse RAW264.7 cells assessed as inhibition of LPS-induced TNFalpha level pretreated for 1 hr followed by induced with LPS measured after 24 hrs by ELISA; format: functional, cell-based; conditions: dose 2.5-20 µM, time 25.0 hrs
RAW264.7 [5] = assay: Anti-inflammatory activity against mouse RAW264.7 cells assessed as inhibition of LPS-induced COX2 level pretreated for 1 hr followed by induced with LPS measured after 24 hrs by ELISA; format: functional, cell-based; conditions: dose 2.5-20 µM, time 25.0 hrs

IC50 (RAW264.7 [3]) [µM]	Structure (SMILES)	inhibition at 5 µM (RAW264.7 [1]) [%]	viability at 24 h, 5 µM [2] [%]	inhibition (RAW264.7 [4])	inhibition (RAW264.7 [5])
2.27	C[C@]12CC[C@H]3[C@@H](CC=C4C[C@@H](O)CC[C@@]43C)[C@@H]1CC[C@@H]2C1=NN(C2=NC(=O)CS2)C(c2ccc(Br)cc2)C1 (some centres not stated)	45.4	85.5	Dose-Dependent Effect	Dose-Dependent Effect
2.36	CCOc1ccc(C2CC([C@H]3CC[C@H]4[C@@H]5CC=C6C[C@@H](O)CC[C@]6(C)[C@H]5CC[C@]34C)=NN2C2=NC(=O)CS2)cc1 (some centres not stated)	47.8	87.7	Dose-Dependent Effect	Dose-Dependent Effect
–	COc1ccc(C2CC([C@H]3CC[C@H]4[C@@H]5CC=C6C[C@@H](O)CC[C@]6(C)[C@H]5CC[C@]34C)=NN2C2=NC(=O)CS2)cc1 (some centres not stated)	30.7	95.9	–	–
2.9	Cc1cccc(C2CC([C@H]3CC[C@H]4[C@@H]5CC=C6C[C@@H](O)CC[C@]6(C)[C@H]5CC[C@]34C)=NN2C2=NC(=O)CS2)c1 (some centres not stated)	51.9	75.9	–	–
5.41	C[C@]12CC[C@H]3[C@@H](CC=C4C[C@@H](O)CC[C@@]43C)[C@@H]1CC[C@@H]2C1=NN(C2=NC(=O)CS2)C(c2ccccc2F)C1 (some centres not stated)	46.8	86.4	–	–
4.07	C[C@]12CC[C@H]3[C@@H](CC=C4C[C@@H](O)CC[C@@]43C)[C@@H]1CC[C@@H]2C1=NN(C2=NC(=O)CS2)C(c2ccc(Cl)cc2)C1 (some centres not stated)	46.3	85.1	–	–
3.8	C[C@@H]1C[C@H]2[C@@H]3CCC4=CC(=O)C=C[C@]4(C)[C@@]3(F)[C@@H](O)C[C@]2(C)[C@@]1(O)C(=O)CO [DEXAMETHASONE]	42.3	92	Dose-Dependent Effect	Dose-Dependent Effect
5.14	C[C@]12CC[C@H]3[C@@H](CC=C4C[C@@H](O)CC[C@@]43C)[C@@H]1CC[C@@H]2C1=NN(C2=NC(=O)CS2)C(c2cccc(Cl)c2)C1 (some centres not stated)	50.7	73.3	–	–
6.89	C[C@]12CC[C@H]3[C@@H](CC=C4C[C@@H](O)CC[C@@]43C)[C@@H]1CC[C@@H]2C1=NN(C2=NC(=O)CS2)C(c2ccc(C#N)cc2)C1 (some centres not stated)	48.8	93.4	–	–
